Reference: US20110239322A1, “IN VITRO FLOWERING/SEED SET LEADING TO PARTIAL OR COMPLETE MALE STERILITY IN GRASSES” (THE PENN STATE RESEARCH FOUNDATION, priority 2010, published 2011)

Test system: shoot explant
Assay: in vitro flowering on flowering medium (MS medium with growth regulators)
Design: species or system grasses
Procedure: In a preferred embodiment, seeds are washed in running tap water with a drop of soap for 5 mins and sterilized with 95% ethyl alcohol for 2 min followed by a 15 minute treatment with 10% bleach and washed three times for 5 min intervals with sterile distilled water. Ten seeds are germinated in each petriplate with MS medium with […]. After germination on MS 2,4-D, for a period of time, such as 3-7 days in the dark at 24±2° C. The flowering medium preferably comprises a substituted phenylurea cytokinin analog, such as TDZ and a cytokinin such as BAP.
Cultures are incubated at 24±2° C. under a 16/8-hour […] photoperiod provided by cool-white fluorescent lights at a quantum flux density of 30 μmol s^−1 m^−2. Following a passage of time, typically within 2 weeks, callus induction occurs, having taken the first internode of the germinated seed (on MS 4 mg/L 2,4-D medium). After about two weeks, the callus is transferred to regeneration medium, to allow for shoot induction (MS, 0.5 mg/L BAP, 0.1 mg/L 2,4-D, 38 mg/L CuSO4). During this time (shoot regeneration), cultures are incubated with necessary dark photoperiodic conditions to promote growth and to mimic natural growing conditions. Additionally, over time it may be necessary to subculture the explants with fresh MS, BAP, 2,4-D, CuSO4. […]

Structure (SMILES): O=C(Nc1ccccc1)Nc1cnns1 [TDZ, 1-phenyl-3-(1,2,3-thiadiazol-5-yl)urea]
- flower production on shoot explant (TDZ 2.0 mg/L combined with BAP 1.0 mg/L in flowering medium): flowers are produced directly on a shoot explant
- flower production on shoots developed from callus (TDZ 1.0-2.0 mg/L without BAP): produces flowers on shoots developed from callus
